According to ChEMBL document CHEMBL1201862, “PubChem BioAssay data set” (2004):
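Each compound was tested at five concentrations against cells in 96-well plates for 48 hours. Here, GI50 denotes the concentration required for 50% inhibition of growth.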 The source made the active and inactive calls. No stated cut-off is given here; in the data, active = GI50 up to about 1.1 µM and inactive = higher.

Columns and labels:
Assay in all cases: DTP human tumour cell line panel, 48 h
[1] = test system: CAKI-1
[2] = test system: CCRF-CEM
[3] = test system: HCC 2998
[4] = test system: HOP-92
[5] = test system: K562
[6] = test system: MCF7
[7] = test system: MOLT-4
[8] = test system: NCI-H226
[9] = test system: NCI/ADR-RES
[10] = test system: OVCAR-3
[11] = test system: OVCAR-5
[12] = test system: OVCAR-8
[13] = test system: RPMI-8226
[14] = test system: RXF 393
[15] = test system: SNB-19
[16] = test system: SW-620
[17] = test system: UACC-62
[18] = test system: UO-31
[19] = test system: NCI-H522
[20] = test system: SF-268

| Structure (SMILES) | GI50 [1] | GI50 [2] | GI50 [3] | GI50 [4] | GI50 [5] | GI50 [6] | GI50 [7] | GI50 [8] | GI50 [9] | GI50 [10] | GI50 [11] | GI50 [12] | GI50 [13] | GI50 [14] | GI50 [15] | GI50 [16] | GI50 [17] | GI50 [18] | GI50 [19] | GI50 [20] |
| --- | --- | --- | --- | --- | --- | --- | --- | --- | --- | --- | --- | --- | --- | --- | --- | --- | --- | --- | --- | --- |
| CCOC(=O)c1csc(NC(=O)CN2CCN(C)CC2)n1 | > 100 µM (inactive) | > 100 µM (inactive) | > 100 µM (inactive) | > 100 µM (inactive) | > 100 µM (inactive) | > 100 µM (inactive) | > 100 µM (inactive) | > 100 µM (inactive) | > 100 µM (inactive) | > 100 µM (inactive) | > 100 µM (inactive) | > 100 µM (inactive) | > 100 µM (inactive) | > 100 µM (inactive) | > 100 µM (inactive) | > 100 µM (inactive) | > 100 µM (inactive) | > 100 µM (inactive) | – | – |
| CCOc1ccc(/N=N/c2ccc3oc(=O)c(/C(C)=N\NC(=O)CC(=O)Nc4ccc(Cl)cc4)cc3c2)cc1 | > 100 µM (inactive) | 0.337 µM (active) | 16.3 µM (inactive) | 25.2 µM (inactive) | 17.3 µM (inactive) | – | 4.09 µM (inactive) | 88.9 µM (inactive) | – | 15.5 µM (inactive) | 99.5 µM (inactive) | 16.1 µM (inactive) | 16.2 µM (inactive) | 14.2 µM (inactive) | 27.3 µM (inactive) | 17.8 µM (inactive) | 10.1 µM (inactive) | 12.2 µM (inactive) | 18.6 µM (inactive) | 19.6 µM (inactive) |
| CC(O)=C1C(=O)CCC1=O | > 100 µM (inactive) | > 100 µM (inactive) | > 100 µM (inactive) | > 100 µM (inactive) | > 100 µM (inactive) | > 100 µM (inactive) | > 100 µM (inactive) | > 100 µM (inactive) | > 100 µM (inactive) | > 100 µM (inactive) | > 100 µM (inactive) | > 100 µM (inactive) | > 100 µM (inactive) | > 100 µM (inactive) | > 100 µM (inactive) | > 100 µM (inactive) | > 100 µM (inactive) | > 100 µM (inactive) | > 100 µM (inactive) | > 100 µM (inactive) |
| CC(C)OP(=O)(OC(C)C)c1c(N)n[nH]c1Nc1ccccc1 | > 100 µM (inactive) | > 100 µM (inactive) | > 100 µM (inactive) | > 100 µM (inactive) | > 100 µM (inactive) | > 100 µM (inactive) | > 100 µM (inactive) | > 100 µM (inactive) | > 100 µM (inactive) | > 100 µM (inactive) | > 100 µM (inactive) | > 100 µM (inactive) | > 100 µM (inactive) | > 100 µM (inactive) | > 100 µM (inactive) | > 100 µM (inactive) | > 100 µM (inactive) | > 100 µM (inactive) | > 100 µM (inactive) | > 100 µM (inactive) |
| CN1CCC23c4ccccc4NC1C21CCN(C)C3Nc2ccccc21 | 75.5 µM (inactive) | 137 µM (inactive) | > 375 µM (inactive) | 94.6 µM (inactive) | 130 µM (inactive) | > 375 µM (inactive) | 151 µM (inactive) | 206 µM (inactive) | > 375 µM (inactive) | > 375 µM (inactive) | > 375 µM (inactive) | 59.4 µM (inactive) | 157 µM (inactive) | 152 µM (inactive) | > 375 µM (inactive) | > 375 µM (inactive) | > 375 µM (inactive) | > 301 µM (inactive) | > 375 µM (inactive) | 102 µM (inactive) |
| CC(=O)Oc1cc2c(cc1OC(C)=O)OCC(c1ccc(C)cc1)C2 (stereo not given) | 21.7 µM (inactive) | 4.07 µM (inactive) | 12.6 µM (inactive) | 8.85 µM (inactive) | 17.1 µM (inactive) | 24.9 µM (inactive) | 7.19 µM (inactive) | 27.1 µM (inactive) | 25.5 µM (inactive) | 21.6 µM (inactive) | 33.5 µM (inactive) | 26.8 µM (inactive) | 11.6 µM (inactive) | 17.5 µM (inactive) | 31.4 µM (inactive) | 19.5 µM (inactive) | 11.7 µM (inactive) | 20.6 µM (inactive) | 2.64 µM (inactive) | 10.5 µM (inactive) |
| COc1ccc(N2C(=O)C3c4[nH]c5ccccc5c4C4CCCCCCCCCC4C3C2=O)cc1 (stereo not given) | > 10 µM (inactive) | > 10 µM (inactive) | > 10 µM (inactive) | – | > 10 µM (inactive) | > 10 µM (inactive) | > 10 µM (inactive) | > 10 µM (inactive) | > 10 µM (inactive) | > 10 µM (inactive) | > 10 µM (inactive) | > 10 µM (inactive) | > 10 µM (inactive) | > 10 µM (inactive) | > 10 µM (inactive) | > 10 µM (inactive) | > 10 µM (inactive) | > 10 µM (inactive) | > 10 µM (inactive) | > 10 µM (inactive) |
